The test system of this assay is α-SMA expression in MRC5 cells. Kind of assay: inhibition of α-SMA expression in MRC5 cells, image screening method. Type of assay: cell-based. Conditions: Homo sapiens; MRC5, compound 10 μM, TGF-β1 5 ng/mL, 72 hours, relative to TGF-β1 alone; read-out: Inhibitory activity (α-SMA expression inhibition). The protocol:
The ability of the compounds according to the present invention to inhibit the expression of α-SMA, which is a biomarker for pulmonary fibrosis, was evaluated by an image screening method. MRC5 cells were treated with the compound (10 μM) or DMSO under the condition of TGF-31 (5 ng/mL). 72 hours later, the cells were fixed with a 4% formaldehyde solution, treated with a 0.1% Triton-x100 solution, and treated with a 1% BSA solution to mask non-specific binding caused by antibodies. Anti-α-SMA-FITC (Sigma Aldrich) and anti-GAPDH (Cell Signaling Technology) were used as primary antibodies, and anti-mouse-TRITC was used as a secondary antibody. Imaging and analysis of the results were performed using Cytation5_Gen5_Version 3.12.08 (Bio Tek). Relative to the α-SMA expression level when TGF-31 was treated alone, the α-SMA expression level when both the compound and TGF-31 were treated was calculated as the ability of α-SMA expression inhibition of the corresponding compound.

A value given as a limit tells only on which side of the number the result lay.

Turning to `O=C(NCC1CCNCC1)N1CCN(c2ccc(F)cc2)c2cc(F)ccc21` [Compound 33, 6-fluoro-4-(4-fluorophenyl)-N-(piperidin-4-ylmethyl)-3,4-dihydroquinoxaline-1(2H)-carboxamide], the inhibition (commonly the change of the read-out against control, counted positive when it falls) at 10 µM is 50 to 70%.
Then `CN1CCC(CNC(=O)N2CCN(c3ccc(F)cc3)c3cc(F)ccc32)CC1` [Compound 34], with 50 to 70%; and `CC(C)CN1CCC(CNC(=O)N2CCN(c3ccc(F)cc3)c3cc(F)ccc32)CC1` [Compound 35, 6-fluoro-4-(4-fluorophenyl)-N-((1-isobutylpiperidin-4-yl)methyl)-3,4-dihydroquinoxaline-1(2H)-carboxamide], with ≥ 70%.
Turning to `CC(C)N1CCC(CNC(=O)N2CCN(c3ccc(F)cc3)c3cc(F)ccc32)CC1` [Compound 36, 6-fluoro-4-(4-fluorophenyl)-N-((1-isopropylpiperidin-4-yl)methyl)-3,4-dihydroquinoxaline-1(2H)-carboxamide], the inhibition at 10 µM is 50 to 70%.
With `O=C(NCc1c[nH]cn1)N1CCN(c2ccc(F)cc2)c2cc(F)ccc21` [Compound 37, N-((1H-imidazol-4-)methyl)-6-fluoro-4-(4-fluorophenyl)-3,4-dihydroquinoxaline-1(2H)-carboxamide] the figure was 30 to 50%; with `COC1CCN(C(=O)N2CCN(c3ccc(F)cc3)c3cc(F)ccc32)C1` (centres unmarked) [Compound 40, (6-fluoro-4-(4-fluorophenyl)-3,4-dihydroquinoxalin-1(2H)-yl)(3-methoxypyrrolidin-1-yl)methanone], 10 to 30%; with `O=C(NC1CNC1)N1CCN(c2ccc(F)cc2)c2cc(F)ccc21` [Compound 41, N-(azetidin-3-yl)-6-fluoro-4-(4-fluorophenyl)-3,4-dihydroquinoxaline-1(2H)-carboxamide], 30 to 50%.
Turning to `CC(C)CN1CC(NC(=O)N2CCN(c3ccc(F)cc3)c3cc(F)ccc32)C1` [Compound 43, 6-fluoro-4-(4-fluorophenyl)-N-(1-isobutylazetidin-3-yl)-3,4-dihydroquinoxaline-1(2H)-carboxamide], the inhibition at 10 µM is ≥ 70%.
With `CN1CC(CNC(=O)N2CCN(c3ccc(F)cc3)c3cc(F)ccc32)C1` [Compound 45, 6-fluoro-4-(4-fluorophenyl)-N-((1-methylazetidin-3-yl)methyl)-3,4-dihydroquinoxaline-1(2H)-carboxamide] the figure was 50 to 70%; with `CC(C)N1CC(CNC(=O)N2CCN(c3ccc(F)cc3)c3cc(F)ccc32)C1` [Compound 46, 6-fluoro-4-(4-fluorophenyl)-N-((1-isopropylazetidin-3-yl)methyl)-3,4-dihydroquinoxaline-1(2H)-carboxamide], 30 to 50%; with `CC(C)CN1CC(CNC(=O)N2CCN(c3ccc(F)cc3)c3cc(F)ccc32)C1` [Compound 47, 6-fluoro-4-(4-fluorophenyl)-N-((1-isobutylazetidin-3-yl)methyl)-3,4-dihydroquinoxaline-1(2H)-carboxamide], 50 to 70%.
Then `O=C(NCC1CCOC1)N1CCN(c2ccc(F)cc2)c2cc(F)ccc21` (centres unmarked) [Compound 48, 6-fluoro-4-(4-fluorophenyl)-N-((tetrahydrofuran-3-yl)methyl)-3,4-dihydroquinoxaline-1(2H)-carboxamide], with 10 to 30%; and `O=C(N[C@H]1CCNC1)N1CCN(c2ccc(F)cc2)c2ccccc21` [Compound 49, (S)-4-(4-fluorophenyl)-N-(pyrrolidin-3-yl)-3,4-dihydroquinoxaline-1(2H)-carboxamide], with 10 to 30%.
With `O=C(NC1CCNCC1)N1CCN(c2ccc(F)cc2)c2ccccc21` [Compound 50, 4-(4-fluorophenyl)-N-(piperidin-4-yl)-3,4-dihydroquinoxaline-1(2H)-carboxamide] the figure was 30 to 50%; with `O=C(NCC1CCOCC1)N1CCN(c2ccc(F)cc2)c2ccccc21` [Compound 52, 4-(4-fluorophenyl)-N-((tetrahydro-2H-pyran-4-yl)methyl)-3,4-dihydroquinoxaline-1(2H)-carboxamide], 10 to 30%.
Consider `O=C(NC[C@H]1CCNC1)N1CCN(c2ccc(F)cc2)c2ccccc21` [Compound 53, (S)-4-(4-fluorophenyl)-N-(pyrrolidin-3-ylmethyl)-3,4-dihydroquinoxaline-1(2H)-carboxamide], for which the inhibition at 10 µM was 10 to 30%.
Turning to `CN1CC[C@H](CNC(=O)N2CCN(c3ccc(F)cc3)c3ccccc32)C1` [Compound 54, (R)-4-(4-fluorophenyl)-N-((1-methylpyrrolidin-3-yl)methyl)-3,4-dihydroquinoxaline-1(2H)-carboxamide], the inhibition at 10 µM lay within 30 to 50%.
As for `CC(C)N1CC[C@H](CNC(=O)N2CCN(c3ccc(F)cc3)c3ccccc32)C1` [Compound 55, (R)-4-(4-fluorophenyl)-N-((1-isopropylpyrrolidin-3-yl)methyl)-3,4-dihydroquinoxaline-1(2H)-carboxamide], the inhibition at 10 µM lay in the range of 30 to 50%.
Then `CC(C)CN1CC[C@H](CNC(=O)N2CCN(c3ccc(F)cc3)c3ccccc32)C1` [Compound 56, (R)-4-(4-fluorophenyl)-N-((1-isobutylpyrrolidin-3-yl)methyl)-3,4-dihydroquinoxaline-1(2H)-carboxamide], with 30 to 50%; and `O=C(NC[C@H]1CCCN1)N1CCN(c2ccc(F)cc2)c2ccccc21` [Compound 57, (R)-4-(4-fluorophenyl)-N-(pyrrolidin-2-ylmethyl)-3,4-dihydroquinoxaline-1(2H)-carboxamide], with 30 to 50%.
Then `CN1CC[C@@H](CNC(=O)N2CCN(c3ccc(F)cc3)c3ccccc32)C1` [Compound 58, (S)-4-(4-fluorophenyl)-N-((1-methylpyrrolidin-3-yl)methyl)-3,4-dihydroquinoxaline-1(2H)-carboxamide], with 30 to 50%.
With `CC(C)N1CC[C@@H](CNC(=O)N2CCN(c3ccc(F)cc3)c3ccccc32)C1` [Compound 59, (S)-4-(4-fluorophenyl)-N-((1-isopropylpyrrolidin-3-yl)methyl)-3,4-dihydroquinoxaline-1(2H)-carboxamide] the figure was 30 to 50%; with `CC(C)CN1CC[C@@H](CNC(=O)N2CCN(c3ccc(F)cc3)c3ccccc32)C1` [Compound 60, (S)-4-(4-fluorophenyl)-N-((1-isobutylpyrrolidin-3-yl)methyl)-3,4-dihydroquinoxaline-1(2H)-carboxamide], 50 to 70%; with `CC(C)CN1CC(CNC(=O)N2CCN(c3ccc(F)cc3)c3ccccc32)C1` [Compound 61, 4-(4-fluorophenyl)-N-((1-isobutylazetidin-3-yl)methyl)-3,4-dihydroquinoxaline-1(2H)-carboxamide], 50 to 70%.
Turning to `O=C(NCC1CCNCC1)N1CCN(c2ccc(F)cc2)c2ccccc21` [Compound 62, 4-(4-fluorophenyl)-N-(piperidin-4-ylmethyl)-3,4-dihydroquinoxaline-1(2H)-carboxamide], the inhibition at 10 µM lay in the range of 30 to 50%.
With `CC(C)N1CCC(CNC(=O)N2CCN(c3ccc(F)cc3)c3ccccc32)CC1` [Compound 63, 4-(4-fluorophenyl)-N-((1-isopropylpiperidin-4-yl)methyl)-3,4-dihydroquinoxaline-1(2H)-carboxamide], the inhibition at 10 µM lay in the range of 30 to 50%.
`CC(C)CN1CCC(CNC(=O)N2CCN(c3ccc(F)cc3)c3ccccc32)CC1` [Compound 64, 4-(4-fluorophenyl)-N-((1-isobutylpiperidin-4-yl)methyl)-3,4-dihydroquinoxaline-1(2H)-carboxamide]: the inhibition at 10 µM was ≥ 70%.
Then `O=C(N[C@@H]1CCNC1)N1CCN(c2ccccc2)c2cc(F)ccc21` [Compound 65, (R)-6-fluoro-4-phenyl-N-(pyrrolidin-3-yl)-3,4-dihydroquinoxaline-1(2H)-carboxamide], with 30 to 50%.
With `O=C(N1CCCCC1)N1CCN(c2ccccc2Cl)c2ccccc21` [Compound 66, (4-(2-chlorophenyl)-3,4-dihydroquinoxalin-1(2H)-yl)(piperidin-1-yl)methanone] the figure was 50 to 70%.
With `O=C(N1CCCC1)N1CCN(c2ccccc2Cl)c2ccccc21` [Compound 67], the inhibition at 10 µM lay in the range of 30 to 50%.
On to `CN1CCN(C(=O)N2CCN(c3ccccc3Cl)c3ccccc32)CC1` [Compound 68, (4-(2-chlorophenyl)-3,4-dihydroquinoxalin-1(2H)-yl)(4-methylpiperazin-1-yl)methanone], for which the inhibition at 10 µM was in the range of 30 to 50%.
Then `CC(C)N1CC[C@H](NC(=O)N2CCN(c3ccccn3)c3ccccc32)C1` [Compound 69, (S)-N-(1-isopropylpyrrolidin-3-yl)-4-(pyridin-2-yl)-3,4-dihydroquinoxaline-1(2H)-carboxamide], with 10 to 30%; and `CC(=O)N1CC[C@@H](NC(=O)N2CCN(c3ccccn3)c3ccccc32)C1` [Compound 70, (R)-N-(1-acetylpyrrolidin-3-yl)-4-(pyridin-2-yl)-3,4-dihydroquinoxaline-1(2H)-carboxamide], with 10 to 30%.
With `O=C(NC[C@H]1CCNC1)N1CCN(c2ccccn2)c2ccccc21` [Compound 71, (S)-4-(pyridin-2-yl)-N-(pyrrolidin-3-ylmethyl)-3,4-dihydroquinoxaline-1(2H)-carboxamide] the figure was 30 to 50%; with `O=C(NC[C@H]1CCCN1)N1CCN(c2ccccn2)c2ccccc21` [Compound 72, (R)-4-(pyridin-2-yl)-N-(pyrrolidin-2-ylmethyl)-3,4-dihydroquinoxaline-1(2H)-carboxamide], 30 to 50%.
